Test results from patent US20250032403A1, “COMPOSITIONS FOR TREATING PERIODONTAL DISEASES” (GR Biosystems, Inc., priority 2017, published 2025).
“Also recorded” adds a separate entry of the source.

Legend:
MMP-3 = experiment: Western blot of MMP-3 protein expression in LPS-induced HGF-1 cells; assay type: cell-based, human
Description: (§1) Human Gingival Fibroblasts (HGF-1) were purchased from ATCC (Manassas, VA) and were grown in DMEM with Glutamax, 10% FBS and Penicillin/Streptomycin (All from Gibco) and kept at 37° C. in a humidified air chamber with 5% CO2. Cells were seeded at 3×10^5 cells/flask for the experiments and then grown to confluency. Cells between 3 and 10 passages were used for all experiments.
(§2) 1,2,3,4,6-Penta-O-galloyl-β-D-glucose (purchased from Sigma-Aldrich) was dissolved in dimethylsulfoxide (DMSO) to obtain a 100 mM stock solution.
(§3) The supernatant was collected and assayed for protein concentration.
(§4) The gels were prepared by standard methods and electrophoresed for 1 hour at 150 V.
(§5) Incubation was done according to specific instructions from the manufacturer for each antibody. […] After incubation and washing with PBS-T, the membranes were incubated in the dark in blocking solution with 0.2% Tween, IRDye 800CW Goat anti-Rabbit IgG, and IRDye® 680RD Donkey anti-Mouse IgG (1:10000, LI-COR Biosciences, Lincoln, NE) for 1 hour at room temperature. The proteins were detected and visualized by fluorescence using the Licor Odyssey Classic Infrared Imaging system (LI-COR Biosciences, Lincoln, NE). Densitometry analysis of specific bands was performed with the Image Studio software provided by LI-COR Biosciences. Statistical analysis, including 1-way ANOVA with Dunnett's Multiple Comparison Test, was done using GraphPad Prism (GraphPad Software, La Jolla, CA).
HGF-1 cells were treated with lipopolysaccharide (LPS, 5 μg/mL) from P. gingivalis in order to reproduce the type of inflammatory response seen in chronic periodontitis.
(§6) HGF-1 cells were induced with LPS (5 μg/mL) to mimic the inflammatory process and Curcumin was added at different concentrations (2.5, 5 and 10 μM).

MMP-9 [1] = experiment: Western blot of MMP-9 protein expression in LPS-induced HGF-1 cells; assay type: cell-based, human; conditions: FIG. 5
Description: as §1, §2, §3, §4
as §5, with “Statistical analysis, including 1-way ANOVA with Dunnett's Multiple Comparison Test, was done using GraphPad Prism (GraphPad Software, La Jolla, CA).” left out

MMPs = experiment: Real time quantitative PCR of MMP gene expression (all MMPs tested) in HGF-1 cells; assay type: cell-based, human
Description: (§7) Gene expression of MMPs was evaluated after treatment under different conditions. The tissue culture was washed with PBS. […] All samples were treated with Qiagen DNase (Cat #79254).
(§8) Real time quantitative PCR was performed on an Applied Biosciences StepOne plus instrument and analyzed with StepOne software v2.3. The relative amounts of transcripts from each gene were normalized to reference gene GAPDH and calculated as follows: ΔΔCT=the average ΔCT of […]−the average ΔCT of […], and their fold difference=2^−ΔΔCT as previously described.

[2] = tested on: toll-like receptors 4 (TLR4); conditions: peritoneal and colonic macrophages; cited from earlier work
Human MMP-13; MMP13 = experiment: Real time quantitative PCR of MMP-13 gene expression in HGF-1 cells; assay type: cell-based
Description: as §7, §8

MMP-9 [3] = experiment: Real time quantitative PCR of MMP-9 gene expression in HGF-1 cells; assay type: cell-based, human
Description: as §7, §8

MyD88 adaptor protein = target: T1, MyD88 adaptor protein (Mus musculus, UniProt P22366); conditions: peritoneal and colonic macrophages; cited from earlier work
T1 construct: host or cells: peritoneal and colonic macrophages

MMP-13 = experiment: Western blot of MMP-13 protein expression in LPS-induced HGF-1 cells; assay type: cell-based, human
Description: as §1, §2, §3, §4
as §5, with “Statistical analysis, including 1-way ANOVA with Dunnett's Multiple Comparison Test, was done using GraphPad Prism (GraphPad Software, La Jolla, CA).” left out

Human MMP-14; MMP14 = experiment: Real time quantitative PCR of MMP-14 gene expression in HGF-1 cells; assay type: cell-based
Description: as §7, §8

Human MMP-2; MMP2 = experiment: Real time quantitative PCR of MMP-2 gene expression in HGF-1 cells; assay type: cell-based
Description: as §7, §8

MMP-2 = experiment: Western blot of MMP-2 protein expression in LPS-induced HGF-1 cells; assay type: cell-based, human; conditions: for MMP-2 production: HGF-1, LPS 5 μg/mL + curcumin 2.5, 5 or 10 μM, n=3, FIG. 15
Description: as §1, §2, §3, §4, §5
Human gingival fibroblasts (HGF-1) were treated with lipopolysaccharide (LPS) from P. gingivalis to reproduce the type of inflammatory response seen in chronic periodontitis. Upon treatment with […], MMP-2 was released into the pericellular space to be activated by MMP-14. Subsequently, MMP-2 and MMP-14 activate MMP-13. […] LPS activation of MMP-2, MMP-13 and MMP-14, however, was attenuated by the administration of PGG.
as §6

TNF-α = conditions: PBMCs, doses as low as 5 μM; cited from earlier work
MMP-14 = experiment: Western blot of MMP-14 protein expression in LPS-induced HGF-1 cells; assay type: cell-based, human
Description: as §1, §2, §3, §4
as §5, with “Statistical analysis, including 1-way ANOVA with Dunnett's Multiple Comparison Test, was done using GraphPad Prism (GraphPad Software, La Jolla, CA).” left out

TNF-α, IL-1β and IL-6 = conditions: peritoneal and colonic macrophages; cited from earlier work
TNF-α and IL-1β = conditions: peripheral blood mononuclear cells, PGG alone; cited from earlier work
[4] = HGF-1, LPS 5 μg/mL + PGG 100 μM, p<0.05, n=3
[5] = HGF-1, LPS + PGG 50-100 μM, FIG. 6
[6] = HGF-1, LPS + PGG 25 μM (lowest dose tested), 48 hours

T1 sequence (P22366 whole entry): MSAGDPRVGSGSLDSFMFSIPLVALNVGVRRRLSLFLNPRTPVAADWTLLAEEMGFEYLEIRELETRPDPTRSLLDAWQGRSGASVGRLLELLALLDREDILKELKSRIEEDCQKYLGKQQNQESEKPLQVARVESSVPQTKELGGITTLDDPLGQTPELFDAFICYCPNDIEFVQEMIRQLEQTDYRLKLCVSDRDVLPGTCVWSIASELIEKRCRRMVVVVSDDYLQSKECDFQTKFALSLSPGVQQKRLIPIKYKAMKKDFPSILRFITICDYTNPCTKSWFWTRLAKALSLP

Q: With `O=C(OC[C@H]1O[C@@H](OC(=O)c2cc(O)c(O)c(O)c2)[C@H](OC(=O)c2cc(O)c(O)c(O)c2)[C@@H](OC(=O)c2cc(O)c(O)c(O)c2)[C@@H]1OC(=O)c1cc(O)c(O)c(O)c1)c1cc(O)c(O)c(O)c1` [PGG, 1,2,3,4,6-penta-O-galloyl-β-D-glucose] as the molecule, how does the MMP-3 protein level (MMP-3; HGF-1, LPS 5 μg/mL + PGG 25 μM, FIG. 4) read?
A: comparable to healthy control values

Q: What about the MMP-3 protein level (MMP-3; HGF-1, LPS 5 μg/mL + PGG 50 and 100 μM, p<0.001, FIG. 4) of the same molecule?
A: further reduced MMP-3 to levels below basal production

Q: What about the “MMP-9 protein level compared to LPS inflammatory control” value (MMP-9 [1]; HGF-1, LPS 5 μg/mL + PGG at a dose lower than 50 μM) of the same molecule?
A: decreased the MMP-9 level

Q: And the “MMP-9 protein level, return to normal levels” value (MMP-9 [1]; HGF-1, LPS 5 μg/mL + PGG)?
A: did not return to normal levels until it was treated with at least 50 μM PGG

Q: What about the MMP gene expression (MMPs; HGF-1, LPS 5 μg/mL + PGG 25 μM, FIG. 6) of the same molecule?
A: did not vary gene expression in a significant manner

Q: And the MPP gene expression (MMPs; healthy HGF-1 (no LPS), PGG 100 μM)?
A: did not significantly change

Q: What about the “interference with the binding of LPS to TLR4” value [2] of the same molecule?
A: did not interfere

Q: And the “MMP-13 gene expression compared with induction with LPS alone” value (Human MMP-13; MMP13; [4])?
A: significantly reduced the expression of MMP-9, MMP-13 and MMP-14

Q: And the “MMP-13 gene expression compared with LPS induction with or without PGG 25 μM” value (Human MMP-13; MMP13; [5])?
A: reduced MMP-2, MMP-9, MMP-13, and MMP-14 expression

Q: And the “MMP-9 gene expression compared with induction with LPS alone” value (MMP-9 [3]; [4])?
A: significantly reduced the expression of MMP-9, MMP-13 and MMP-14

Q: What about the “MMP-9 gene expression compared with LPS induction with or without PGG 25 μM” value (MMP-9 [3]; [5]) of the same molecule?
A: reduced MMP-2, MMP-9, MMP-13, and MMP-14 expression

Q: And the “interaction with MyD88 adaptor protein” value (MyD88 adaptor protein)?
A: interacted directly

Q: And the “MMP-13 protein level after LPS treatment” value (MMP-13; [6])?
A: reduction of these three MMPs to basal levels of production

Q: What about the “MMP-13 expression in the PGG treated groups” value (MMP-13; HGF-1, LPS + PGG, FIG. 2) of the same molecule?
A: not significantly different than the healthy controls; also recorded: prevented upregulation of MMP-13 in a dose-dependent manner

Q: And the “MMP-14 gene expression compared with induction with LPS alone” value (Human MMP-14; MMP14; [4])?
A: significantly reduced the expression of MMP-9, MMP-13 and MMP-14

Q: And the “MMP-14 gene expression compared with LPS induction with or without PGG 25 μM” value (Human MMP-14; MMP14; [5])?
A: reduced MMP-2, MMP-9, MMP-13, and MMP-14 expression

Q: And the MMP-2 gene expression (Human MMP-2; MMP2; HGF-1, LPS 5 μg/mL + PGG 100 μM, p<0.01, n=3, FIG. 6)?
A: decreased the expression of MMP-2 compared to treatment with PGG 25-50 μM, yet expression was still higher compared with healthy HGF-1

Q: And the “MMP-2 gene expression compared with LPS induction with or without PGG 25 μM” value (Human MMP-2; MMP2; [5])?
A: reduced MMP-2, MMP-9, MMP-13, and MMP-14 expression

Q: And the “MMP-2 protein level after LPS treatment” value (MMP-2; [6])?
A: reduction of these three MMPs to basal levels of production

Q: And the “MMP-2 levels compared to healthy control” value (MMP-2; HGF-1, PGG 100 μM, FIG. 1)?
A: reduced significantly; also recorded: lower than in healthy controls

Q: What about the “MMP-2 expression compared to healthy controls” value (MMP-2; HGF-1, simultaneously treated with LPS and increasing PGG concentrations, FIG. 1) of the same molecule?
A: not significantly different than in healthy controls

Q: And the “suppression of LPS-induced TNF-α production” value (TNF-α)?
A: ≤ 90%

Q: And the “MMP-14 expression in the PGG treated groups” value (MMP-14; HGF-1, LPS 5 μg/mL + PGG, 48 hour, FIG. 3)?
A: not significantly different than the healthy controls; also recorded: not significantly different from healthy controls

Q: And the “MMP-14 protein level after LPS treatment” value (MMP-14; [6])?
A: reduction of these three MMPs to basal levels of production

Q: What about the “production of TNF-α, IL-1β and IL-6” value (TNF-α, IL-1β and IL-6) of the same molecule?
A: decreasing the production

Q: What about the “cytokine production of PBMCs on treatment with PGG” value (TNF-α and IL-1β) of the same molecule?
A: resulted in the production of TNF-α and IL-1β

Q: For `COc1cc(/C=C/C(=O)CC(=O)/C=C/c2ccc(O)c(OC)c2)ccc1O` [curcumin, reference compound], which MMP-3 production (MMP-3; HGF-1, LPS 5 μg/mL + curcumin 2.5, 5 and 10 μM, FIG. 16) is on record?
A: decreased MMP-3 production

Q: What about the MMP-2 production (MMP-2) of the same molecule?
A: not significantly different that the untreated HGF-1

Q: And the MMP-2 production (MMP-2; listed as Curcumin)?
A: decreased MMP-2 production

Q: What about the MMP-2 expression (MMP-2; HGF-1 treated with Curcumin 10 μM alone (no LPS), p>0.05, n=3) of the same molecule?
A: not significantly different from untreated HGF-1
